Reference: patent US20230405062A1, “GOS PRE-CONDITIONING L. REUTERI AND GOS IN FINAL FORMULATION” (BIOGAIA AB, priority 2021, published 2023)

Tests used:
L. reuteri DSM 17938 = assay: Survival of L. reuteri in colon (qPCR), short SHIME model; design: species or system Lactobacillus reuteri; conditions: for survival of L. reuteri in the colon in presence or absence of GOS: 48 h incubation, qPCR, FIG. 4A
From the text: (§1) In this experiment, a simplified simulation of the continuous Simulator of the Human Microbial Ecosystem (SHIME®) was used. This SHIME® model has been extensively used for more than 20 years for both scientific and industrial projects and has been validated with in vivo parameters (see for example Van den Abbeele et al., Arabinoxylo-Oligosaccharides and Inulin Impact Inter-Individual Variation on Microbial Metabolism and Composition, Which Immunomodulates Human cells, J. Agric. Food chem. 2018, 66(5): 1121-1130).
(§2) For the current set of experiments a two-stage batch system mimicking the upper gastro-intestinal tract (Upper GIT, stomach and small intestine) and colonic conditions were used as simplified SHIME® system (FIG. 1). Cow milk-based toddler beverage, also called Growing-up-milk, containing minerals adapted for the age group was used in these studies.
Fresh fecal material was collected from an infant donor. Fecal suspension was prepared and mixed with a protectant. At the start of the short-term colonic incubation, the test ingredients (L. reuteri strain and Streptococcus thermophilus strain) were added to sugar-depleted nutritional medium containing basal nutrients present in the colon (e.g., host-derived glycans such as mucin).
L. reuteri strain and S. thermophilus strain were inoculated at 1×10^9 CFU/reactor. […]
(§3) L. reuteri strain and pre-conditioned L. reuteri strain were inoculated at 1x10^9 CFU/reactor. L. reuteri were quantified by plating on MRS medium, while S. thermophilus was plated on M17 medium supplemented with lactose. […] Quantities of L. reuteri and S. thermophilus powders were then calculated to target 1x10^9 CFU/colonic reactor. […]
(§4) Quantitative polymerase chain reaction (qPCR) was performed to selectively enumerate Lactobacilli and Streptococci. qPCR was performed at 0 h and after 48 h of colonic incubation.

S. thermophilus NCC2496 = assay: Survival of S. thermophilus in colon (qPCR), short SHIME model; design: species or system Streptococcus thermophilus; conditions: 48 h incubation, FIG. 4A
From the text: as §1
as §2, with “studies. […]” for “studies.”
as §3, §4

## Lactobacillus reuteri DSM 17938 [L. reuteri]
L. reuteri DSM 17938
  survival of L. reuteri in the colon in presence or absence of GOS: enhanced by the presence of GOS
L. reuteri DSM 17938; listed as L. reuteri DSM17938
  survival of L. reuteri in the colon in presence or absence of GOS: positive effect of GOS
L. reuteri DSM 17938; cell counts at 48 h, FIG. 4B
  survival of L. reuteri in the colon in presence of GOS, pre-conditioned vs non-pre-conditioned: survives well

## Streptococcus thermophilus NCC2496 [S. thermophilus]
S. thermophilus NCC2496
  survival of S. thermophilus in the colon in presence or absence of GOS: impaired by the presence of GOS
S. thermophilus NCC2496; listed as Streptococcus thermophilus NCC2496
  survival of S. thermophilus in the colon in presence or absence of GOS: negative effect of GOS
